In PMC12480751, “A quantitative high-throughput screening pipeline to identify small molecule inhibitors of Chikungunya nsP2 protease” (Scientific Reports, 2025):

Assays:
[1] = biological target: T1, nsP2 protease (Chikungunya virus, UniProt Q8JUX6); assay: cell-based; type: cell-based
T1 construct: expressed in transfected cells; host or cells: HEK293T (the results text says HEK293), transient co-transfection in pcDNA3.1(+)
T1 sequence (Q8JUX6 755-1333 limits assumed): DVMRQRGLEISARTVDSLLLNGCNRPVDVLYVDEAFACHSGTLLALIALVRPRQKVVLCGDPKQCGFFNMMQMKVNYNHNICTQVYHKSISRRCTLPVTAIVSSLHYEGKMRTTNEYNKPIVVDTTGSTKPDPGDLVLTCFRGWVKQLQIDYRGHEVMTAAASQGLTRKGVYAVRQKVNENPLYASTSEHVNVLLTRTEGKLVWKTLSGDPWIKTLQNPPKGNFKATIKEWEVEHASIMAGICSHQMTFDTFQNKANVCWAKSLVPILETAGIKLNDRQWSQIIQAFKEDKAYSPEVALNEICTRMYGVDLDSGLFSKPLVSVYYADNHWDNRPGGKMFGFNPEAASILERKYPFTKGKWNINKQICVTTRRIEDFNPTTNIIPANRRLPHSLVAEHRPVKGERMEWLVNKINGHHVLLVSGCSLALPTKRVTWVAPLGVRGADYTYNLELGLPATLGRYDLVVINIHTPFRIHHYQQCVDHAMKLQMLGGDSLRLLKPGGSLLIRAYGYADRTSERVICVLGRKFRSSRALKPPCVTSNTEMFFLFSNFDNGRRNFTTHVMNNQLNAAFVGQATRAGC

[2] = biological target: T2, CHIKV nsP2pro (Chikungunya virus, UniProt Q8JUX6); assay: FRET-based nsP2pro proteolytic assay with peptide 2 (nsp3/4 site), 1,536-well qHTS; type: biochemical
[3] = test system: SNB19 cells; assay: CellTiter-Glo cell viability assay of SNB19 cells; type: cell-based, human; details: 48 h
Protocol: Cells were harvested in growth media and dispensed (5 µL /1,000 cells/well) onto 1536-well white plates (Aurora #EWB041000A) using a Multidrop Combi. Control and test compounds were added (25 nL) using an Echo 650 liquid handler. Plates were incubated for 48 h at 37 °C and 5% CO2 and then equilibrated to room temperature prior to addition of 4 µL /well of CellTiter-Glo (Promega) using a Multidrop Combi. Plates were subsequently incubated for 15 min at room temperature and centrifuged for 1 min at 1000 rpm. Luminescence was read on a ViewLux imager equipped with clear filters.

[4] = biological target: T2, CHIKV nsP2pro; assay: FRET-based nsP2pro proteolytic assay with peptide 3 (nsp2/3 site); type: biochemical; details: nsP2pro and peptide 3; read-out: IC50, inhibition of cleavage of nsp2/3 peptide by nsp2pro
Protocol: (§1) To gain further insight on their therapeutic potential, we investigated whether confirmed hits inhibit proteolytic activity in the context of full-length nsP2 protein rather than isolated protease domain[13]. To test the set of confirmed inhibitors, we chose peptide 2 substrate and full-length enzyme concentrations of 1 μM and 150 nM, respectively. Compound activity correlated well between nsP2pro and full-length enzyme (Fig. 2A). Additionally, we tested whether hits inhibit proteolysis of the nsP2/3 site.
(§2) Two point five μM peptide 2 substrate and 150 nM nsP2pro were selected to run the assay into 1536-well plate format. ZnAc was used as a positive control in the assay (50 µM). […] For primary screens, compounds were tested at 7 concentrations, 1:3 dilution points ranging from 25 µM to 34 nM. […] Four µL nsP2pro enzyme mix in assay buffer (10 mM Tris⋅HCl pH 8.0 with 0.01% Tween 20) was dispensed into the plate using a BioRAPTR FRD liquid dispenser (Beckman Coulter). The plate was incubated at RT (protected from light) for 15 min before addition of 4 µL substrate in assay buffer. After 1 h, plates were immediately read on a ViewLux high-throughput CCD imager (Exposure = 10 s, Gain = High, Speed = Slow, Binning = 2X). The above assay was also incorporated in the NCATS HTS facility, which allowed for robotic liquid and compound dispensing, microplate handling, and fluorescence reading. […]

[5] = test system: CHIKV; design: method as in PMID 30018455; details: cited from earlier work
[6] = biological target: T3, full-length nsP2 (Chikungunya virus, UniProt Q8JUX6, C1333A); assay: FRET-based full-length nsP2 proteolytic assay with peptide 2; type: biochemical; details: full-length nsP2 and peptide 2; read-out: IC50, inhibition of nsp3/4 cleavage by full-length enzyme
T3 sequence (Q8JUX6 536-1333 C1333A): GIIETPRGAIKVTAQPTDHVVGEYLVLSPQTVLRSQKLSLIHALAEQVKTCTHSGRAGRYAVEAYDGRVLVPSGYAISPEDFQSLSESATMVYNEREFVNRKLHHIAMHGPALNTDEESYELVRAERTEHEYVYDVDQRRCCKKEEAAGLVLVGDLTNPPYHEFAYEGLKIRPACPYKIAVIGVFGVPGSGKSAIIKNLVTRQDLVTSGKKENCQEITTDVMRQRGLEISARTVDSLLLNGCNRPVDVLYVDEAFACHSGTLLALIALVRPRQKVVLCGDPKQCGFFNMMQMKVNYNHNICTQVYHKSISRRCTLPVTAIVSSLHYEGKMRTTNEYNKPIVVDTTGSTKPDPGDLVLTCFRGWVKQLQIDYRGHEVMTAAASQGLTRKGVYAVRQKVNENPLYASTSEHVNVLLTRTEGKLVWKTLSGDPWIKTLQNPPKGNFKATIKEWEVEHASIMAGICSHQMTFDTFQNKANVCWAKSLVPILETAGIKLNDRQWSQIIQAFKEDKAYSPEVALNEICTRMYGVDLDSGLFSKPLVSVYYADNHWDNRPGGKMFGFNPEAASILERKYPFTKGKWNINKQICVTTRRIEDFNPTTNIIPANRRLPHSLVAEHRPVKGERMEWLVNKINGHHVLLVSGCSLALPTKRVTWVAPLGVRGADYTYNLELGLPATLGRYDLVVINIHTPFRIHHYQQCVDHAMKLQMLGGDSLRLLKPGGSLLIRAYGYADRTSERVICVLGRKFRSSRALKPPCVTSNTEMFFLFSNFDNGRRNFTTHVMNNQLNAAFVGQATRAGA
Protocol: as §1
All reactions were incubated at room temperature (RT).
as §2, with “The plate was incubated at RT (protected from light) for 15 min before addition of 4 µL substrate in assay buffer.” left out

Compound | Cell-based % Efficacy [1] [%] | AC50 ([1]; read-out: Cell-based AC50) [µM] | Enzymatic % Efficacy ([2]; nsP2pro biochemical assay, 13 cell-active hits) [%] | IC50 ([2]; nsP2pro biochemical assay, 13 cell-active hits, read-out: Enzymatic IC50) [µM] | CC50 [3] [µM] | IC50 [4] [µM] | concentrations effective in preventing CHIKV viral infection [5] | effect on Nluc reporter signal in cellular nsp2 proteolytic assay [1] | IC50 [6] [µM] | IC50 ([2]; nsP2pro and peptide 2, read-out: IC50, inhibition of nsp3/4 cleavage by nsP2pro) [µM]
CC(C)n1nc(C#Cc2ccccc2)c2c(N)ncnc21 [SPP 86] | 146.3 | 18.3 | -114.8 | 8 | 16.4 | – | – | – | – | –
CC(=O)[O-].CC(=O)[O-].[Zn+2] [ZnAc, Zinc acetate] | – | – | – | – | – | 0.685 ± 0.077 | higher than 60 µM | did not increase Nluc reporter signal | 0.137 ± 0.011 | 0.192 ± 0.012
